Common to all, as to assay: KinomeScan kinase panel, single concentration 10 µM
Common to all, as to assay type: binding

Assay [1] has as its target T1, KinomeScan kinase panel (Homo sapiens, UniProt P42685).
T1 construct: purchased DiscoveRx (KinomeScan)
The note with it: FRK, 10 µM; read-out: score (%).

The target of assay [2] is T2, KinomeScan kinase panel (Homo sapiens, UniProt Q16566).
T2 construct: purchased DiscoveRx (KinomeScan)
T2 sequence (Q16566 1-473): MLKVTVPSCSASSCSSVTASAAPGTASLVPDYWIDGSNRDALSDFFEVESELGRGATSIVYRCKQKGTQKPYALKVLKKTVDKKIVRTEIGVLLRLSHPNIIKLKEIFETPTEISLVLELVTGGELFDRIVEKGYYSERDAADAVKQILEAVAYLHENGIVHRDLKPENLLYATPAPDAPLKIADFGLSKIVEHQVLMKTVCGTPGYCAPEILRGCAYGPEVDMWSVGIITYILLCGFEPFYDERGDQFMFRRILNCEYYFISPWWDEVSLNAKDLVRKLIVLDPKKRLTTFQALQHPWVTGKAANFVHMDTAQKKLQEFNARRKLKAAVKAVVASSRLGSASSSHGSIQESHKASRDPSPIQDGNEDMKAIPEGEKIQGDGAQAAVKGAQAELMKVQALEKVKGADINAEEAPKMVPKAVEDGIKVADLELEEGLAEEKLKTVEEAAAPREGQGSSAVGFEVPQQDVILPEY
The note with it: CAMK4, 10 µM; read-out: score (%).

Assay [3] has as its target T3, KinomeScan kinase panel (Homo sapiens, UniProt Q9UIK4).
T3 construct: purchased DiscoveRx (KinomeScan)
Particulars: DAPK2, 10 µM; read-out: score (%).

Assay [4] addresses T4, KinomeScan kinase panel (Homo sapiens, UniProt Q16288).
T4 construct: purchased DiscoveRx (KinomeScan)
Particulars: 10 µM, read-out: score (%).

For assay [5], the target named is T5, KinomeScan kinase panel (Homo sapiens, UniProt P00519, Y253F).
T5 construct: purchased DiscoveRx (KinomeScan)
The note with it: 10 µM, read-out: score (%).

The target in assay [6] is T6, KinomeScan kinase panel (Homo sapiens, UniProt Q96L34).
T6 construct: purchased DiscoveRx (KinomeScan)
T6 sequence (Q96L34 1-752): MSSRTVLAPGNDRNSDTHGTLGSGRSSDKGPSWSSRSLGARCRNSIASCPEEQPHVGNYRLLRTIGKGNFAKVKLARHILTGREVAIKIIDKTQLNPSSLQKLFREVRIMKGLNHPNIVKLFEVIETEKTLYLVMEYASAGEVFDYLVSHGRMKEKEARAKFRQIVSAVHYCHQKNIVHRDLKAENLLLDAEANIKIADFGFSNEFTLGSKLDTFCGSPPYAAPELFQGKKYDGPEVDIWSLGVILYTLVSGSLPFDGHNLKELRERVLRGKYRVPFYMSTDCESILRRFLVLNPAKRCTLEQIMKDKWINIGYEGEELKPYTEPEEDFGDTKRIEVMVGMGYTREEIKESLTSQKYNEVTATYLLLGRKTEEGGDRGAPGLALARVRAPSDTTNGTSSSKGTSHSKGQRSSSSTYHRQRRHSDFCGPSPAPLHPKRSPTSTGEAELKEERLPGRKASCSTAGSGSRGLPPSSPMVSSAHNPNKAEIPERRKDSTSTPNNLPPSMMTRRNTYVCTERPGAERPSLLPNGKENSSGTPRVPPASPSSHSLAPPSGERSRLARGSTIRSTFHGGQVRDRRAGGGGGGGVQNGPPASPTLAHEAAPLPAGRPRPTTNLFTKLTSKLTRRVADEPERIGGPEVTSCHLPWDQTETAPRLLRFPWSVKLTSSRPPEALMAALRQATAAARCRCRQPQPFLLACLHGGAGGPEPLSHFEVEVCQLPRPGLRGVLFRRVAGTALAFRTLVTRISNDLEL
The note with it: MARK4, 10 µM.

The target in assay [7] is T7, KinomeScan kinase panel (Homo sapiens, UniProt Q9UKE5).
T7 construct: purchased DiscoveRx (KinomeScan)
The note with it: 10 µM, read-out: score (%).

The target of assay [8] is T8, KinomeScan kinase panel (Homo sapiens, UniProt O94804).
T8 construct: purchased DiscoveRx (KinomeScan)
Particulars: LOK, 10 µM.

Assay [9] concerns the target T9, KinomeScan kinase panel (Homo sapiens, UniProt P24941).
T9 construct: purchased DiscoveRx (KinomeScan)
The note with it: CDK2, 10 µM.

The target of assay [10] is T10, KinomeScan kinase panel (Homo sapiens, UniProt Q09013).
T10 construct: purchased DiscoveRx (KinomeScan)
T10 sequence (Q09013 1-629): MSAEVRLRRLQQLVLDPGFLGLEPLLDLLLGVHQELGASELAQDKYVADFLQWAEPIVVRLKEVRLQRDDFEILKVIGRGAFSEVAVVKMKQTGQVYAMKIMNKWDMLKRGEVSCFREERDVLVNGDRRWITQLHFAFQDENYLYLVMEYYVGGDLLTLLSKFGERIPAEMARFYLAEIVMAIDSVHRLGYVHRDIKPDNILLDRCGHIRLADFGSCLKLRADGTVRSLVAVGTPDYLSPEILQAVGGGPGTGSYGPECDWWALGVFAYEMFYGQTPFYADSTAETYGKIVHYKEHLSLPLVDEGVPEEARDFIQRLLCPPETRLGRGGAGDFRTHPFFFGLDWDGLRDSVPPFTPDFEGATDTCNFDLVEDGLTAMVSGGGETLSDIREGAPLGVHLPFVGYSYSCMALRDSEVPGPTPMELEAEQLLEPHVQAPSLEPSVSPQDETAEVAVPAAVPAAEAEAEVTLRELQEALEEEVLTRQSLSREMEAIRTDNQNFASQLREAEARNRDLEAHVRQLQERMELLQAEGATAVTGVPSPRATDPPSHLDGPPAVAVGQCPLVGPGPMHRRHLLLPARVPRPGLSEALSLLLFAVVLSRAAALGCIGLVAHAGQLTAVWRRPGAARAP
The note with it: DMPK, 10 µM; read-out: score (%).

The target in assay [11] is T11, KinomeScan kinase panel (Homo sapiens, UniProt P06241).
T11 construct: purchased DiscoveRx (KinomeScan)
Particulars: FYN, 10 µM; read-out: score (%).

Assay [12] has as its target T12, KinomeScan kinase panel (Homo sapiens, UniProt P06213).
T12 construct: purchased DiscoveRx (KinomeScan)
The note with it: INSR, 10 µM; read-out: score (%).

Assay [13] deals with T13, KinomeScan kinase panel (Homo sapiens, UniProt P00533, DEL752-759).
T13 construct: purchased DiscoveRx (KinomeScan)

Assay [14] concerns the target T14, KinomeScan kinase panel (Homo sapiens, UniProt P49336).
T14 construct: purchased DiscoveRx (KinomeScan)
Particulars: CDK8, 10 µM.

The values that follow come from paper PMC4457528, “Identification of Novel Small Molecule Inhibitors of Oncogenic RET Kinase” (PLoS ONE, 2015).

SMILES strings stand for the structures. Where two headings read alike, the source gives them in different places.

T13 sequence (P00533 with tags, fused parts or gaps DEL752-759): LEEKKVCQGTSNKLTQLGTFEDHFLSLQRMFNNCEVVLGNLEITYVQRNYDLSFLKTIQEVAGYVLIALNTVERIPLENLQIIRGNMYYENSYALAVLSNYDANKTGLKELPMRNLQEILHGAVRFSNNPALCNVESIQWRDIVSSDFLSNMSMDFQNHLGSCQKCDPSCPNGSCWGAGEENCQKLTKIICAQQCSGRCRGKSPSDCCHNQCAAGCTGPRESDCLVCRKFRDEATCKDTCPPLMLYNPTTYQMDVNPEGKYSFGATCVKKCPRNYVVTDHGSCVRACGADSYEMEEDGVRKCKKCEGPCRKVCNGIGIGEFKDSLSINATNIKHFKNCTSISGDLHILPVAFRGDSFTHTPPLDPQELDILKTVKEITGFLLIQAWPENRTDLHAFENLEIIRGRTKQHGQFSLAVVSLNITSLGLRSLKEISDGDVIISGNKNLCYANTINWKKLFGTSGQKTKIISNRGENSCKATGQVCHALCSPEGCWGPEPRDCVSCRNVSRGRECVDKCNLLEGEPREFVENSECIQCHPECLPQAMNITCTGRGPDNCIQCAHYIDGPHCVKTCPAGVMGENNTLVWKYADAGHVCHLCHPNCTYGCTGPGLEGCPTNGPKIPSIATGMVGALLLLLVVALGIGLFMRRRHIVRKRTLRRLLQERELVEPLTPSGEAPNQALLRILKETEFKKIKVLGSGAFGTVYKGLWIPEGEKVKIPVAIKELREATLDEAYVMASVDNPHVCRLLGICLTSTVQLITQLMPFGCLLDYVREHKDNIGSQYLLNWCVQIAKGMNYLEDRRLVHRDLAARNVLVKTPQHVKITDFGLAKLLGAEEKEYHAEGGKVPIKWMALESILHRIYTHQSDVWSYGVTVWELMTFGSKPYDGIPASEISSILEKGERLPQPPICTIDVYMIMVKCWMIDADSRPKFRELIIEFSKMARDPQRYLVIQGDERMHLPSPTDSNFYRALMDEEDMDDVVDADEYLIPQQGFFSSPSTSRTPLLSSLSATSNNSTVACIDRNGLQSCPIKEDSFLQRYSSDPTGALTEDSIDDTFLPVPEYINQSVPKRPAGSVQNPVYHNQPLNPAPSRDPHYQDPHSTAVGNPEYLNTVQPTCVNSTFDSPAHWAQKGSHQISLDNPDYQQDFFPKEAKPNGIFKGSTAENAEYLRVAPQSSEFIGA
T7 sequence (Q9UKE5 whole entry): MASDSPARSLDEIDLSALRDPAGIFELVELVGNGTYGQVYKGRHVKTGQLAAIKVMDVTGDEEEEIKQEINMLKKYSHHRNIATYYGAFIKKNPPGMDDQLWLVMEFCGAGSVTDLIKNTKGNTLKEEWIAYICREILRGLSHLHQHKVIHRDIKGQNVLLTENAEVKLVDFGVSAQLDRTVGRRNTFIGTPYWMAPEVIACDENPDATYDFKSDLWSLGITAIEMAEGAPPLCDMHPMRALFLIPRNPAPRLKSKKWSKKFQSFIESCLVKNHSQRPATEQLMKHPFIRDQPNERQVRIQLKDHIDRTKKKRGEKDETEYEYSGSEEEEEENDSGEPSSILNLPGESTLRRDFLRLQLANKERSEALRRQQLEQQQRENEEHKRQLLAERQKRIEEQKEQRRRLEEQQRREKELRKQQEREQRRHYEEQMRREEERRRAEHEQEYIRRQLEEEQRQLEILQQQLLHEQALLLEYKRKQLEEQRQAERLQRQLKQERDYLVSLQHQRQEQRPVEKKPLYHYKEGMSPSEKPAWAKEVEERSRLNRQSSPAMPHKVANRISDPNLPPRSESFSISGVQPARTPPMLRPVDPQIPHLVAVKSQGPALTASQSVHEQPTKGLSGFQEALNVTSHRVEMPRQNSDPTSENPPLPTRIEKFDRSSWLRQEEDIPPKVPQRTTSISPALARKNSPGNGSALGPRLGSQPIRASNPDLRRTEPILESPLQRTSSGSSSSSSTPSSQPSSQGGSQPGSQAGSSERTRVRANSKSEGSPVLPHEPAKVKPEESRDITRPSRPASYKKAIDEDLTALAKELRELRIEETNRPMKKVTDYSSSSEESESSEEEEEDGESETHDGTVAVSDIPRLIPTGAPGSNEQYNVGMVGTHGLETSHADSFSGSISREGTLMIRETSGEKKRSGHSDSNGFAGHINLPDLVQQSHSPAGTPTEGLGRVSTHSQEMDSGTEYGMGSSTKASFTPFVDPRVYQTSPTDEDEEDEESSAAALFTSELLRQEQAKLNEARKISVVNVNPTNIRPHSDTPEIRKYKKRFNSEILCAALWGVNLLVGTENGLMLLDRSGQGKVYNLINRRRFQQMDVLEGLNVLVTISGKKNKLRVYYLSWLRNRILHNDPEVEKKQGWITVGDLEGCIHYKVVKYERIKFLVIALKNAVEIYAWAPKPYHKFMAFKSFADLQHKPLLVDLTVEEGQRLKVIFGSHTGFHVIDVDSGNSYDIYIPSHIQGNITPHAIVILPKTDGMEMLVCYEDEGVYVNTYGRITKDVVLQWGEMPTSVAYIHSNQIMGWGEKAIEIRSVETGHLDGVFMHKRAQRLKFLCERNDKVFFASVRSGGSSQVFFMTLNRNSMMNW
T4 sequence (Q16288 32-839): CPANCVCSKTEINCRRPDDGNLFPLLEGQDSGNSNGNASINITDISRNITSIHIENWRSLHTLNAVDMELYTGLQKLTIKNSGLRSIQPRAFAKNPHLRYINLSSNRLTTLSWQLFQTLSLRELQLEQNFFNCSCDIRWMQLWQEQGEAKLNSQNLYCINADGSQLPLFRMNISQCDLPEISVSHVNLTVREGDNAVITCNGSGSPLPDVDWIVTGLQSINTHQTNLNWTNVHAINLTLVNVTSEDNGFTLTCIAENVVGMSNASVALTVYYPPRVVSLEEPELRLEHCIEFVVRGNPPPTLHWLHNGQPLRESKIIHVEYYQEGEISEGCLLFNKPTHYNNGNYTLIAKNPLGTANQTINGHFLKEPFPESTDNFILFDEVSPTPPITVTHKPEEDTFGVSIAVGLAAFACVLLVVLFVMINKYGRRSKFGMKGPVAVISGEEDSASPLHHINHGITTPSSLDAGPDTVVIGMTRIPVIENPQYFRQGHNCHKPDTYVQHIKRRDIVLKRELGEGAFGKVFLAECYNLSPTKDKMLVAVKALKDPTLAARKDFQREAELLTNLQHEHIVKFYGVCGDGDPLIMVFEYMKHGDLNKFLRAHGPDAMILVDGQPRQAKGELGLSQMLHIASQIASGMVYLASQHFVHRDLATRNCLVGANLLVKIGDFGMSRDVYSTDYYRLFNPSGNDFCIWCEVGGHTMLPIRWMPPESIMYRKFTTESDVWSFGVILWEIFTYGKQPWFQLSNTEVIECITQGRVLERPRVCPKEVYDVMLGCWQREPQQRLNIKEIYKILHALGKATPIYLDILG
T1 sequence (P42685 whole entry): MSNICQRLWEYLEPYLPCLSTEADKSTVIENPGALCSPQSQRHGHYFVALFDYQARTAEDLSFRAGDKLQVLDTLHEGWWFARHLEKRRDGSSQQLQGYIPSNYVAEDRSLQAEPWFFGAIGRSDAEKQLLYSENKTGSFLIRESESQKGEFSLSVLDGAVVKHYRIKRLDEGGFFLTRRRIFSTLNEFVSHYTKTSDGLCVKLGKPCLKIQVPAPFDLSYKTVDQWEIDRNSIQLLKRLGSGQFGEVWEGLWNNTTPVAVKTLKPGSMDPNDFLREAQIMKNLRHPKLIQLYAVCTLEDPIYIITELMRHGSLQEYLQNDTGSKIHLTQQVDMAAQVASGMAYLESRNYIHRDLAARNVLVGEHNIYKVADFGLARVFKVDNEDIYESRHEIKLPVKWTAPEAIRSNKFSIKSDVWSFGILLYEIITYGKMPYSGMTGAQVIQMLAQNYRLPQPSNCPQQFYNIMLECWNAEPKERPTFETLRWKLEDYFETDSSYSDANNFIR
T3 sequence (Q9UIK4 whole entry): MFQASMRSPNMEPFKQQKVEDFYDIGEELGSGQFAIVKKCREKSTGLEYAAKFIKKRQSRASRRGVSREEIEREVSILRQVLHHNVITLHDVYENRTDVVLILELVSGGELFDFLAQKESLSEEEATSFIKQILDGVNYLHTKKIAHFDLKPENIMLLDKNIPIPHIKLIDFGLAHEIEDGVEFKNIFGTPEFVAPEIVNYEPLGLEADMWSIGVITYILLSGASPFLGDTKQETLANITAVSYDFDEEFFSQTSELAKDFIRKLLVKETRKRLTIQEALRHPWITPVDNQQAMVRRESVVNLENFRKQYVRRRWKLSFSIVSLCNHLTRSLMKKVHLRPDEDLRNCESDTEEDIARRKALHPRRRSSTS
T11 sequence (P06241 whole entry): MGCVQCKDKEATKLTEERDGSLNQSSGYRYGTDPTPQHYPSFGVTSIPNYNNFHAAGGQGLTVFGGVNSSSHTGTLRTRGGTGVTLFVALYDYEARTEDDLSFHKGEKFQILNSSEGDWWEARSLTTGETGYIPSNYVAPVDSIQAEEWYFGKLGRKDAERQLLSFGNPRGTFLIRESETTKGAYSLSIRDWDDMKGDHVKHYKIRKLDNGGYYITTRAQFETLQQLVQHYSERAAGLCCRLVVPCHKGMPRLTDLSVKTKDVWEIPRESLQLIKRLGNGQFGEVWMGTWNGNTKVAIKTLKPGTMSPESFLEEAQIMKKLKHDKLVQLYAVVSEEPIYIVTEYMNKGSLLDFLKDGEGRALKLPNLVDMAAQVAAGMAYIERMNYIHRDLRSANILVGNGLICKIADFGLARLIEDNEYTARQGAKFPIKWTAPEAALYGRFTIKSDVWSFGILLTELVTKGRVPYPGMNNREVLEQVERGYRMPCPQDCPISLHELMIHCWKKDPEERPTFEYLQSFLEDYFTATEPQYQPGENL

As to `CCN1CCN(Cc2ccc(NC(=O)c3ccc(C)c(NC(=O)c4cncc(-c5cccs5)c4)c3)cc2C(F)(F)F)CC1` [ALW-II-41-27], the remaining binding at 10 µM in [1] is 0.2%; in assay [2] it was more than 30%; in [3], more than 30%; in assay [4] (kinase TRKC) it was 0.85%; in assay [5] (ABL1(Y253F)), 0.2%; in assay [7] (kinase TNIK) it was 11%. For the same compound, the remaining binding at 10 µM is more than 30% in assay [10], 0.25% in [11] and 12% in assay [12]. Also, the “score (%)” value in [6] is listed as “nb (Hits values higher than 30% were considered negative (no binding: nb))”; in [8], 0.05%; in [9], “nb (Hits values higher than 30% were considered negative (no binding: nb))”; in assay [13], 3%; in assay [14] it was 20%.
With `CCN1CCN(Cc2ccc(NC(=O)c3ccc(C)c(/C=C/c4cnc5[nH]ccc5c4Cl)c3)cc2C(F)(F)F)CC1` [HG-6-63-01, (E)-3-(2-(4-chloro-1H-pyrrolo[2,3-b]pyridin-5-yl)vinyl)-N-(4-((4-ethylpiperazin-1-yl)methyl)-3-(trifluoromethyl)phenyl)-4-methylbenzamide], the remaining binding at 10 µM in [1] was 0.55%; in assay [2], more than 30%; in assay [3] it was more than 30%; in assay [4] (TRKC), 5.3%; in assay [5] (ABL1(Y253F)), 0.1%; in assay [7] (TNIK) it was 13%. Further, the remaining binding at 10 µM is more than 30% in assay [10], 2.2% in assay [11] and more than 30% in assay [12]. Moreover, the “score (%)” value is given as 25% in [6]; 0% in assay [8]; “nb (Hits values higher than 30% were considered negative (no binding: nb))” in assay [9]; 0% in [13] (EGFR(S752-I759del), 10 µM); 9.6% in assay [14].
Turning to `CCN1CCN(Cc2ccc(NC(=O)c3ccc(C)c(C#Cc4cccnc4)c3)cc2C(F)(F)F)CC1` [XMD15-44], the remaining binding at 10 µM in assay [1] was 0.15%; in assay [2] it was more than 30%; in [3], more than 30%; in assay [4] (kinase TRKC) it was 0.35%; in [5] (ABL1(Y253F)-phosphorylated) it was 0.15%; in [7] (kinase TNIK), 1.8%. Also, the results for the remaining binding at 10 µM in assay [10], in [11] and in assay [12] were more than 30%, 0.35% and more than 30%, respectively. The “score (%)” value in [6] is on record as “nb (Hits values higher than 30% were considered negative (no binding: nb))”; in [8], 0%; in [9] it was 10%; in assay [13] (EGFR(S752-I759del), 10 µM), 0.9%; in assay [14] it was 8.2%.
